The results in this text go back to patent publication US10239887B2, “Positive allosteric modulators of the muscarinic acetylcholine receptor M4” (Vanderbilt University, priority 2016, dated 2019).

For this assay, the target named is T1, human mAChR M4 (Homo sapiens, UniProt P08173).
T1 sequence (P08173 1-479): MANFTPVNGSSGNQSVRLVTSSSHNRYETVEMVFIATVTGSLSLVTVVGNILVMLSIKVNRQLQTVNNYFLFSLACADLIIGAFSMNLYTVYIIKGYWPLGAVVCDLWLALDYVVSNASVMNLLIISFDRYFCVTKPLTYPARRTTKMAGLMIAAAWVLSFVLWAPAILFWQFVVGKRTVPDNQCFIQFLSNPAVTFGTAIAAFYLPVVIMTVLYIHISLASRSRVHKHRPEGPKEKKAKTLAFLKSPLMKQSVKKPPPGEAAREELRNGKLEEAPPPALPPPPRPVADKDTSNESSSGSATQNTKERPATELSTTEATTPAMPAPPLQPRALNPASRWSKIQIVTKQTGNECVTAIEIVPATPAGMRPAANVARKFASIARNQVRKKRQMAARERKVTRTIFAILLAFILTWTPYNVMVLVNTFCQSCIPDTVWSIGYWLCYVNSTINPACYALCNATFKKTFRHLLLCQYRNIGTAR
Description: mAChR M4 cell-based functional assay (calcium flux), human M4. The conditions noted are these: Table 10; for EC50: Human M4 EC50 (nM); for Emax: % ACh maximum at 30 μM.

Where [1] appears, read: calcium flux, PAM activity with EC20 acetylcholine.

Usually EC50 stands for the concentration at which the effect is half-maximal. Usually Emax stands for the maximal effect, on the per cent scale that the assay sets. Turning to `Cc1nnc2sc3c(NCc4ccc(C(=O)NC5CCCC5)cc4)ncnc3c2c1C` [Compound 153, N-cyclopentyl-4-[[(3,4-dimethylpyrimido [4′,5′:4,5]thieno[2,3-c]pyridazin-8-yl)amino]methyl]benzamide], the Emax came out at 87.4%. Further, the EC50 under setting [1] was 114 nM.
The matching figures for `Cc1nnc2sc3c(NCc4ccc(C(=O)NC5CC6(COC6)C5)cc4)ncnc3c2c1C` [Compound 154, 4-[[(3,4-dimethylpyrimido [4′,5′:4,5]thieno[2,3-c]pyridazin-8-yl)amino]methyl]-N-(2-oxaspiro [3.3]heptan-6-yl)benzamide]: 87.2% and 109 nM.
The matching figures for `Cc1nnc2sc3c(NCc4ccc(C(=O)NC(C)C)cc4)ncnc3c2c1C` [Compound 155, 4-[[(3,4-dimethylpyrimido [4′,5′:4,5]thieno[2,3-c]pyridazin-8-yl)amino]methyl]-N-isopropyl-benzamide]: 88.1% and 174 nM.
For `Cc1nnc2sc3c(NCc4ccc(C(=O)N5CC(F)(F)C5)cc4)ncnc3c2c1C` [Compound 156, (3,3-difluoroazetidin-1-yl)-[4-[[(3,4-dimethlpyrimido [4′,5′:4,5]thieno[2,3-c]pyridazin-8-yl)amino]methyl]phenyl]methanone] the same measures were 84.9% and 590 nM.
Take `Cc1nnc2sc3c(NCc4ccc(C(=O)N[C@H](C)C(F)(F)F)cc4)ncnc3c2c1C` [Compound 157, 4-[[(3,4-dimethylpyrimido [4′,5′:4,5]thieno[2,3-c]pyridazin-8-yl)amino]methyl]-N-[(1R)-2,2,2-trifluoro-1-methyl-ethyl]benzamide]: the Emax was found to be 86.1%. Moreover, the EC50 under setting [1] came out at 244 nM.
In the case of `Cc1nnc2sc3c(NCc4ccc(C(=O)NC(C)C(C)(C)CO)cc4)ncnc3c2c1C` (stereo not shown) [Compound 158, 4-[[(3,4-dimethylpyrimido [4′,5′:4,5]thieno[2,3-c]pyridazin-8-yl)amino]methyl]-N-(3-hydroxy-1,2,2-trimethyl-propyl) benzamide], the Emax turned out to be 85%. The EC50 under setting [1] stood at 220 nM.
For `Cc1nnc2sc3c(NCc4ccc(C(=O)NC5CCCCC5)cc4)ncnc3c2c1C` [Compound 159, N-cyclohexyl-4-[[(3,4-dimethylpyrimido [4′,5′:4,5]thieno[2,3-c]pyridazin-8-yl)amino]methyl]benzamide] the same measures were 84.8% and 380 nM.
For `Cc1nnc2sc3c(NCc4ccc(C(=O)NC5CCC(C)(C)CC5)cc4)ncnc3c2c1C` [Compound 160, N-(4,4-dimethylcyclohexyl)-4-[[(3,4-dimethylpyrimido [4′,5′:4,5]thieno[2,3-c]pyridazin-8-yl)amino]methyl]benzamide] the same measures were 86% and 980 nM.
For `Cc1nnc2sc3c(N4CC(Nc5ccnc(F)c5F)C4)ncnc3c2c1C` [Compound 161, N-[1-(3,4-dimethylpyrimido[4′,5′:4,5]thieno[2,3-c]pyridazin-8-yl)azetidin-3-yl]-2,3-difluoro-pyridin-4-amine; 2,2,2-trifluoroacetic acid] the same measures were 80.1% and 84.3 nM.
`Cc1nnc2sc3c(NC4CC5(C4)CN(c4ncc(Cl)cc4Cl)C5)ncnc3c2c1C` [Compound 162, N-[2-(3,5-dichloro-2-pyridyl)-2-azaspiro[3.3]heptan-6-yl]-3,4-dimethyl-pyrimido[4′,5′:4,5]thieno [2,3-c]pyridazin-8-amine]: the maximal effect (Emax) came out at 48.3%. Also, the EC50 under setting [1] amounted to 5630 nM.
The matching figures for `Cc1nnc2sc3c(NC4CC5(C4)CN(c4ncc(F)cc4Cl)C5)ncnc3c2c1C` [Compound 163, N-[2-(3-chloro-5-fluoro-2-pyridyl)-2-azaspiro [3.3]heptan-6-yl]-3,4-dimethyl-pyrimido [4′,5′:4,5]thieno[2,3-c] pyridazin-8-amine]: 42.9% and 1440 nM.
With `Cc1nnc2sc3c(NC4CC5(C4)CN(c4ncc(Cl)cc4F)C5)ncnc3c2c1C` [Compound 164, N-[2-(5-chloro-3-fluoro-2-pyridyl)-2-azaspiro [3.3]heptan-6-yl]-3,4-dimethyl-pyrimido [4′,5′:4,5]thieno[2,3-c] pyridazin-8-amine], the maximum response (Emax) was determined as 22.7%. Also, the EC50 under setting [1] is 3500 nM.
The matching figures for `Cc1cnc(N2CC3(CC(Nc4ncnc5c4sc4nnc(C)c(C)c45)C3)C2)nc1` [Compound 165, 3,4-dimethyl-N-[2-(5-methylpyrimidin-2-yl)-2-azaspiro[3.3]heptan-6-yl]pyrimido [4′,5′:4,5]thieno[2,3-c] pyridazin-8-amine]: 31.6% and 2410 nM.
In the case of `Cc1ncc(CN2CC3(CC(Nc4ncnc5c4sc4nnc(C)c(C)c45)C3)C2)cn1` [Compound 166, 3,4-dimethyl-N-[2-[(2-methylpyrimidin-5-yl)methyl]-2-azaspiro [3.3]heptan-6-yl]pyrimido [4′,5′:4,5]thieno[2,3-c] pyridazin-8-amine], the Emax stood at 34.7%. The EC50 under setting [1] came out at 1210 nM.
The matching figures for `Cc1nnc2sc3c(NC4CC5(C4)CN(C(=O)CC(F)(F)F)C5)ncnc3c2c1C` [Compound 168, 1-[6-[(3,4-dimethylpyrimido [4′,5′:4,5]thieno[2,3-c]pyridazin-8-yl)amino]-2-azaspiro[3.3]heptan-2-yl]-3,3,3-trifluoro-propan-1-one]: 29% and 3970 nM.
In the case of `Cc1nnc2sc3c(NC4CC5(C4)CN(C(=O)C4CCOCC4)C5)ncnc3c2c1C` [Compound 169, [6-[(3,4-dimethylpyrimido[4′,5′:4,5]thieno[2,3-c]pyridazin-8-yl)amino]-2-azaspiro[3.3]heptan-2-yl]-tetrahydropyran-4-yl-methanone], the Emax turned out to be 34.9%. Also, the EC50 (unit μM (bounds)) is greater than 10000 nM.
Regarding `CCCCCC(=O)N1CC2(CC(Nc3ncnc4c3sc3nnc(C)c(C)c34)C2)C1` [Compound 170, 1-[6-[(3,4-dimethylpyrimido [4′,5′:4,5]thieno[2,3-c]pyridazin-8-yl)amino]-2-azaspiro[3.3]heptan-2-yl]hexan-1-one; 2,2,2-trifluoroacetate acid], the Emax was 41%. Further, under setting [1], the EC50 turned out to be 1260 nM.
On to `Cc1nnc2sc3c(N4CCC(C(C)(C)O)C4)ncnc3c2c1C` (stereo not shown) [Compound 171, 2-[1-(3,4-dimethylpyrimido [4′,5′:4,5]thieno[2,3-c]pyridazin-8-yl)pyrrolidin-3-yl]propan-2-ol], for which the Emax was determined as 30.9%. Moreover, under setting [1], the EC50 was found to be 172 nM.
The matching figures for `Cc1nnc2sc3c(NC4CC5(C4)CN(C(=O)c4ccc(C(F)(F)F)cc4)C5)ncnc3c2c1C` [Compound 172, [6-[(3,4-dimethylpyrimido [4′,5′:4,5]thieno[2,3-c]pyridazin-8-yl)amino]-2-azaspiro[3.3]heptan-2-yl]-[4-(trifluoromethyl)phenyl]methanone]: 39.5% and 2950 nM.
For `Cc1nnc2sc3c(N4CCC(C(=O)Nc5ccc(C(F)(F)F)cc5)C4)ncnc3c2c1C` (stereo not shown) [Compound 173, 1-(3,4-dimethylpyrimido [4′,5′:4,5]thieno[2,3-c]pyridazin-8-yl)-N-[4-(trifluoromethyl)phenyl] pyrrolidine-3-carboxamide] the same measures were 24.4% and 3310 nM.
Regarding `Cc1nnc2sc3c(N4CCC(C(=O)Nc5ccccn5)C4)ncnc3c2c1C` (stereo not shown) [Compound 174, 1-(3,4-dimethylpyrimido [4′,5′:4,5]thieno[2,3-c]pyridazin-8-yl)-N-(2-pyridyl)pyrrolidine-3-carboxamide], the Emax is 31%. Also, under setting [1], the EC50 was 748 nM.
For `Cc1nnc2sc3c(NCc4ccc(F)c(C(C)(C)O)c4)ncnc3c2c1C` [Compound 175, 2-[5-[[(3,4-dimethylpyrimido [4′,5′:4,5]thieno[2,3-c]pyridazin-8-yl)amino]methyl]-2-fluoro-phenyl]propan-2-ol], the maximum response (Emax) is 52.5%. For the same molecule, the EC50 under setting [1] turned out to be 722 nM.
The matching figures for `Cc1nnc2sc3c(NCc4ccc(F)c(C(=O)NC5CC5)c4)ncnc3c2c1C` [Compound 176, N-cyclopropyl-5-[[(3,4-dimethylpyrimido [4′,5′:4,5]thieno[2,3-c]pyridazin-8-yl)amino]methyl]-2-fluoro-benzamide]: 105% and 511 nM.
For `Cc1nnc2sc3c(NCc4ccc(F)c(C(=O)NC5CCC5)c4)ncnc3c2c1C` [Compound 177, N-cyclobutyl-5-[[(3,4-dimethylpyrimido [4′,5′:4,5]thieno[2,3-c]pyridazin-8-yl)amino]methyl]-2-fluoro-benzamide] the same measures were 98.5% and 570 nM.
For `Cc1nnc2sc3c(NCc4ccc(F)c(C(=O)NC5CCCC5)c4)ncnc3c2c1C` [Compound 178, N-cyclopentyl-5-[[(3,4-dimethylpyrimido [4′,5′:4,5]thieno[2,3-c]pyridazin-8-yl)amino]methyl]-2-fluoro-benzamide] the same measures were 97.1% and 1030 nM.
In the case of `Cc1nnc2sc3c(NCc4ccc(F)c(C(=O)NC(C)C)c4)ncnc3c2c1C` [Compound 179, 5-[[(3,4-dimethylpyrimido [4′,5′:4,5]thieno[2,3-c]pyridazin-8-yl)amino]methyl]-2-fluoro-N-isopropyl-benzamide], the Emax stood at 95.2%. In addition, under setting [1], the EC50 came out at 748 nM.
